The record followed here is US9878984B2, “Anti-cancer compounds” (NORTHWESTERN UNIVERSITY, priority 2008, dated 2018).

For one assay, the system named is pBR322 plasmid DNA. Description: DNA intercalation assay (topoisomerase I based plasmid DNA unwinding). Format: biochemical. Particulars: 10, 31.6, and 100 μM, human topoisomerase I. How it is done:
DNA Intercalation Assay: A DNA unwinding assay was performed as previously described with minor modifications. Four Units of recombinant wild type human topoisomerase I (Topogen—Port Orange, Fla.) were incubated with reaction buffer (included with enzyme), ˜0.5 μg of pBR322 plasmid DNA, which is a mixture of form I and form II plasmid DNA, and water added to a final volume of 19 μL. The reactions were incubated at 37° C. for 30 min and then 1 μL of each compound was added to give a final concentration of 10, 31.6, and 100 μM (final solvent concentration of 1% DMSO) and the reaction mixture was incubated at 37° C. for another 30 min. The reaction was stopped by the addition of 5 μL gel loading dye. The samples were immediately loaded onto a 1% agarose gel and electrophoresis was performed at 50 V for 3 h at room temperature. Pictures of the gels were obtained using a Kodak Image Station 440 CF (Kodak—Rochester, N.Y.) equipped with a UV source.
This activity depends on the ability of these compounds to intercalate DNA, which is the proposed mechanism of cytotoxic action of amonafide and its analogs. Therefore, the intercalation of plasmid DNA by A1-A9 was compared with the intercalation by amonafide to determine if they behave similarly. A topoisomerase I (topo I) based plasmid DNA unwinding assay was used to determine the intercalation of each compound [1]. […]

For the next assay, the system named is Chk2. Description: DNA damage response assay (pThr68-Chk2 / total Chk2 western blot). The format is cell-based, human. Particulars: HeLa cells, [GI99%], 20 hr, normalized to mitoxantrone. As for the experimental part:
DNA Damage Response Assay: 250,000 HeLa cells were plated in 35 mm culture dishes and allowed to attach for 8 hr and were then treated with the [GI99%] of each compound for 20 hr (total media volume was […] with 1% DMSO). After treatment cells were lysed in 150 μL detergent buffer containing 1:100 v/v protease inhibitor cocktail (Sigma—St. Louis, Mo.). Lysates were run on denaturing 12% acrylamide gels and transferred to nitrocellulose membranes. The membranes were blocked in blotto, incubated in anti-pThr68-Chk2 antibody (Cell Signaling—Danvers, Mass.) at 1:500 v/v dilution in blotto overnight 4° C., washed, incubated in HRP conjugated anti-rabbit secondary antibody (Jackson) at 1:5,000 v/v dilution in blotto for 1 hr, and then developed. The membranes were then stripped with a reducing buffer, blocked in blotto, incubated in anti-Chk2 antibody (Biolegend—San Diego, Calif.) at 1:500 v/v dilution in blotto overnight at 4° C., washed, incubated in HRP conjugated anti-mouse secondary antibody (Jackson) at 1:5,000 v/v dilution in blotto for 1 hr, and then developed. Membranes were developed with PicoWest Developing Solution (Pierce) and exposed to film. The intensities of bands were quantified as described in the previous section. The data are expressed as the average ratio of pThr68-Chk2 to total Chk2 as normalized to the mitoxantrone control in each of three independent experiments.
Topoisomerase inhibition by most mechanisms should cause activation of DNA damage response pathways because of the production of single and double strand DNA breaks, as is the case with amonafide. […] Therefore, measuring the DNA damage response at a fixed cytotoxic dose ([GI99%]) will determine the extent that DNA damage contributes to the cytotoxicity of these compounds. […] Activation of Chk2 was determined by measuring the ratio of pThr68-Chk2 to total Chk2 in HeLa cells treated with the [GI99%].
On the technique in general: A western blot detects proteins with antibodies after separation by electrophoresis.

Structures are written as SMILES.

Turning to `CN(C)CCN1C(=O)c2cccc3c(N)ccc(c23)C1=O` [A1, 6-amino-2-[2-(dimethylamino)ethyl]-1H-benz[de]isoquinoline-1,3(2H)-dione], the DNA intercalation result in the assay on pBR322 plasmid DNA is “intercalated DNA to a lesser extent than amonafide and the other derivatives”.

In the case of `CN(C)CCN1C(=O)c2cccc3cc(N)cc(c23)C1=O` [amonafide, reference compound], the “DNA damage response (ratio of pThr68-Chk2 to total Chk2)” value in the assay on Chk2 was “evoked the strongest DNA damage response”.
